Assay results reported in paper PMC4336331, “Novel Receptor-Derived Cyclopeptides to Treat Heart Failure Caused by Anti-β1-Adrenoceptor Antibodies in a Human-Analogous Rat Model” (PLoS ONE, 2015).
Peptide text beside a SMILES is read from it.

Assays:
[1] = tested on: anti-β1EC2-induced heart failure (β1EC2/GST-FP-immunised rats); experiment: Left heart catheterisation (haemodynamics), prevention-study; type: in vivo, Lewis/CrlBR rats; conditions: LV catheterisation month 16, mean ±SEM
Experimental: In brief, n = 76 two months old Lewis/CrlBR rats were either s.c. immunised with 50 μg β1EC2/GST-FP, or n = 38 rats were control-injected with 0.9% NaCl (t = 0). To maintain high anti-β1EC2-titers, all immunised rats were boosted with β1EC2/GST-FP (or 0.9% NaCl) every month over 20 months as previously described. Application of the different linear or cyclic β1-AR peptides (corresponding to the primary AA-sequence of either the first (β1EC1) or the 2nd extra-cellular β1-AR loop (β1EC2)) or the β1-receptor blocker bisoprolol was initiated either 6 weeks after the 1st immunisation (i.e. 15 days after the 1st boost, prevention-study), or 8.5 months after the 1st immunisation (therapy-study).

[2] = tested on: anti-β1EC2-induced heart failure (β1EC2/GST-FP-immunised rats); experiment: Heart histology (fibrotic scars, TUNEL, mast cells), therapy-study; type: in vivo, Lewis/CrlBR rats; conditions: for number of myocardial fibrotic scars, in words: midventricular 2μm-sections (Fig. 3A and B); for TUNEL-positive apopotic cells, in words: midventricular 2μm-sections (Fig. 3C); for increase in cardiac mast cells, in words: toluidine blue, mono- or co-treatment (Fig. 3E)
From the text: Fig 3 Histology of rat hearts (therapy-study). (A) Representative H&E-stained 2μm cross-sections of hearts (from the left to the right) from a control rat, an immunised untreated rat, a bisoprolol- and a β1EC2-CP mono-treated rat, and a β1EC2-CP/bisoprolol co-treated rat. (B) Quantification of fibrotic scars in midventricular 2μm-sections (mvhs, mid-ventricular heart-section). Columns ± error bars represent the mean number of fibrotic scars ±SEM per 3 heart sections in the indicated groups. (C) TUNEL-assay with 2μm-mvhs. Columns ± error bars represent mean numbers ±SEM of apoptotic cells (kind of cells not specified) /3 mvhs. (D) qRT-PCR of apical cardiac tissues. Columns ± error bars represent the expression of the indicated pro-fibrotic markers ±SEM in the indicated treatment-groups normalised to controls. (E) Mast cells in 2μm paraffin-mvhs from the indicated treatment-groups; columns ± error bars represent the mean numbers ±SEM of mast cells/mm^2 cardiac tissue. For all parameters shown, differences between the treatment-groups were assessed by […] one way ANOVA and Dunnett`s post-hoc test; *p<0.05; **p<0.001.

cardiac β1-ARs = experiment: Radioligand binding of cardiac membranes (125I-CYP); type: in vivo, Lewis/CrlBR rats; conditions: 125I-cyanopindolol binding to cardiac membranes, CGP20712A competition (Fig. 4A and B)
Experimental: Membranes from apical cardiac tissues from rats of each study-group were prepared as previously described. To determine total β-AR density (Bmax), 35μg membrane protein were incubated (1.5 h, 25°C) in binding buffer with 200pM of the non-selective β-AR antagonist ^125I-cyanopindolol (^125I-CYP; Perkin Elmer Life and Analytical Sciences, Billerica, MA). Non-specific binding was determined with 5μM unlabeled L-propranolol. The proportion of β1- and β2-AR subtypes was estimated from biphasic competition-curves with 10^-10 to 10^-2 M of the unlabeled β1-selective antagonist CGP20712A (Sigma). The reaction was stopped by rapid filtration (Whatman GF/C filters) and washing with ice-cold buffer. Filter-bound radioactivity was measured by γ-counting. Estimates of maximal binding (Bmax) and the proportion of β1- and β2-AR-subtypes were calculated with GraphPad Prism 5.00 (San Diego, CA).
Fig 4 Cardiac adrenergic system and molecular markers. […] Columns ± error bars represent the level of expression of the indicated markers ±SEM in cardiac tissues from the indicated treatment-groups compared to values from 0.9% NaCl-injected rats (controls, set at 100%), as determined by qRT-PCR normalised to GAPDH (one way ANOVA and Dunnett`s post-hoc test; *p<0.05; **p<0.001).

[3] = tested on: anti-β1EC2-induced β1-AR/cAMP signaling in HEKβ1-cells; experiment: FRET cAMP assay (Epac1-camps), blockade of anti-β1EC2-induced signals; type: cell-based, human; conditions: HEKβ1-cells with Epac1-camps FRET-sensor; IgG pre-incubated with peptide (Fig. 1F)
Experimental: The effects of anti-β1EC2 on β1AR-mediated intracellular cAMP-production were assessed by measuring fluorescence resonance energy transfer (FRET) in HEKβ1-cells transiently transfected with a FRET-sensor for cAMP, Epac1-camps. The sensor consists of the cAMP-binding protein Epac1 flanked by enhanced cyan or yellow fluorescent protein. […] IgG-preparations were added to the cells at 0.13 μg/μl protein concentration; 2μM (-)isoproterenol (Sigma) was used as a reference to determine the maximal cAMP-response. To test the blocking-efficacy of β1EC2-CP on anti-β1EC2-induced adrenergic signaling, the different IgG-preparations were pre-incubated with β1EC2-CP (20 μg/μl) for 6 h at 4 °C; for pharmacological blockade of anti-β1EC2-induced signals we utilised 5.0μM bisoprolol.
(D) Immunostaining experiments with rat anti- β1EC2 (1:100) using HEK-cells stably expressing β1-ARs (HEK β1) or not (wild type; HEK WT). IgG was prepared from anti- β1EC2-positive rats or 0.9% NaCl-injected control rats. Amino-terminal β1AR-specific rabbit anti-bodies (1:250) served as positive controls. […] HEK β1-cells were transfected with the cAMP-sensor Epac1-camps, which reacts to cAMP-binding with a reduction in fluorescence resonance energy transfer (FRET) between its fluorophores cyan (CFP) and yellow fluorescent protein (YFP). […] Representative FRET-ratio traces of 1/5 experiments are shown. Values are given in % of maximal cAMP-response achieved with 0.3μM (-)isoproterenol (Iso).

[4] = Half-life of β1EC2-peptides in rat whole blood ex vivo; conditions: for Half-life in whole blood, in words: ex vivo incubation experiments with whole blood (Fig. 1G); for half-life: rat, whole blood
[5] = immunised anti-β1EC2-positive rats, from 6 weeks after 1st immunisation EC2-CP 1.0 mg/kg i.v. every 4 weeks or bisoprolol 15 mg/kg/day orally over 12 months
[6] = non-immunised 0.9% NaCl-injected rats, EC2-CP 1.0 mg/kg i.v. every 4 weeks or bisoprolol 15 mg/kg/day orally over 12 months

CC(C)NCC(O)COc1ccc(COCCOC(C)C)cc1 (centres unmarked) [bisoprolol, reference compound]
+dP/dt (contractilility) [1, 5]: 6768 ±106 mmHg/s
-dP/dt (relaxation) [1, 5]: 5532 ±78 mmHg/s
HF (heart frequence) [1, 5]: 178 ±9 bpm
LVEDP (LV end-diastolic pressure) [1, 5]: 8.3 ±0.6 mmHg
LVSP (maximal systolic LV-pressure) [1, 5]: 106 ±3 mmHg
+dP/dt (contractilility) [1, 6]: 7012 ±419 mmHg/s
-dP/dt (relaxation) [1, 6]: 5619 ±155 mmHg/s
HF (heart frequence) [1, 6]: 173 ±17 bpm
LVEDP (LV end-diastolic pressure) [1, 6]: 10.6 ±1.5 mmHg
LVSP (maximal systolic LV-pressure) [1, 6]: 107 ±11 mmHg
number of myocardial fibrotic scars, in words [2]: not seen
TUNEL-positive apopotic cells, in words [2]: not seen
increase in cardiac mast cells, in words [2]: reversed to control levels
cardiac β1-AR density (downregulation), in words (cardiac β1-ARs): small increase

CC(C)[C@@H]1NC(=O)[C@H](Cc2ccccc2)NC(=O)[C@H](CC(=O)O)NC(=O)[C@H](CS)NC(=O)[C@H](CS)NC(=O)[C@H](CCCCN)NC(=O)[C@@H]2CCCN2C(=O)[C@H](CC(=O)O)NC(=O)[C@H](CC(N)=O)NC(=O)[C@H](Cc2ccc(O)cc2)NC(=O)[C@H](CS)NC(=O)[C@H](CCCNC(=N)N)NC(=O)[C@H](CCCNC(=N)N)NC(=O)[C@H](C)NC(=O)[C@H](CCC(=O)O)NC(=O)[C@H](CC(=O)O)NC(=O)[C@H](CO)NC(=O)[C@H](CCC(=O)O)NC(=O)[C@H](C)NC(=O)[C@H](CCCNC(=N)N)NC(=O)[C@H](C)NC(=O)[C@H](CCC(N)=O)NC(=O)CNC(=O)[C@H](CCCNC(=N)N)NC(=O)[C@H](CC(N)=O)NC(=O)[C@H]([C@@H](C)O)NC1=O [β1EC2-CP] (cyclo(AESDEARRCYNDPKCCDFVTNRGQAR))
-dP/dt (relaxation) [1, 5]: 5887 ±93 mmHg/s
HF (heart frequence) [1, 5]: 226 ±5 bpm
LVEDP (LV end-diastolic pressure) [1, 5]: 10.4 ±0.6 mmHg
LVSP (maximal systolic LV-pressure) [1, 5]: 127 ±4 mmHg
-dP/dt (relaxation) [1, 6]: 5986 ±288 mmHg/s
HF (heart frequence) [1, 6]: 232 ±7 bpm
LVEDP (LV end-diastolic pressure) [1, 6]: 10.1 ±1.4 mmHg
LVSP (maximal systolic LV-pressure) [1, 6]: 135 ±7 mmHg
blockade of anti-β1EC2-induced cAMP-signals, in words [3]: inhibited
number of myocardial fibrotic scars, in words [2]: returned to normal levels
TUNEL-positive apopotic cells, in words [2]: returned to normal levels
increase in cardiac mast cells, in words [2]: reversed to control levels
cardiac β1-AR density (downregulation), in words (cardiac β1-ARs): largely prevented
Half-life in whole blood, in words [4]: days
half-life [4]: 20.2 days

CC(C)[C@H](NC(=O)[C@H](Cc1ccccc1)NC(=O)[C@H](CC(=O)O)NC(=O)[C@H](CS)NC(=O)[C@H](CS)NC(=O)[C@H](CCCCN)NC(=O)[C@@H]1CCCN1C(=O)[C@H](CC(=O)O)NC(=O)[C@H](CC(N)=O)NC(=O)[C@H](Cc1ccc(O)cc1)NC(=O)[C@H](CS)NC(=O)[C@H](CCCNC(=N)N)NC(=O)[C@H](CCCNC(=N)N)NC(=O)[C@H](C)NC(=O)[C@H](CCC(=O)O)NC(=O)[C@H](CC(=O)O)NC(=O)[C@H](CO)NC(=O)[C@H](CCC(=O)O)NC(=O)[C@H](C)NC(=O)[C@H](CCCNC(=N)N)NC(=O)[C@H](C)N)C(=O)N[C@H](C(=O)N[C@@H](CC(N)=O)C(=O)N[C@@H](CCCNC(=N)N)C(=O)NCC(N)=O)[C@@H](C)O [β1EC2-Lin] (H-ARAESDEARRCYNDPKCCDFVTNRG-NH2; N-terminus and C-terminus assumed)
blockade of anti-β1EC2-induced cAMP-signals, in words [3]: inhibited
Half-life in whole blood, in words [4]: hours
half-life [4]: 0.167 days
